The record followed here is BindingDB's records for patent US20250136608 (Cgenetech (Suzhou, China) Co., 2025).

The structures appear in SMILES notation.

The target in assay [1] is Tyrosine-protein kinase JAK2 (Homo sapiens, UniProt O60674). Put plainly: JAK2 Kinase Inhibitory Activity Assay.
The target of assay [2] is T1, Tyrosine-protein kinase JAK3 (Homo sapiens, UniProt P52333).
T1 sequence (P52333 whole entry): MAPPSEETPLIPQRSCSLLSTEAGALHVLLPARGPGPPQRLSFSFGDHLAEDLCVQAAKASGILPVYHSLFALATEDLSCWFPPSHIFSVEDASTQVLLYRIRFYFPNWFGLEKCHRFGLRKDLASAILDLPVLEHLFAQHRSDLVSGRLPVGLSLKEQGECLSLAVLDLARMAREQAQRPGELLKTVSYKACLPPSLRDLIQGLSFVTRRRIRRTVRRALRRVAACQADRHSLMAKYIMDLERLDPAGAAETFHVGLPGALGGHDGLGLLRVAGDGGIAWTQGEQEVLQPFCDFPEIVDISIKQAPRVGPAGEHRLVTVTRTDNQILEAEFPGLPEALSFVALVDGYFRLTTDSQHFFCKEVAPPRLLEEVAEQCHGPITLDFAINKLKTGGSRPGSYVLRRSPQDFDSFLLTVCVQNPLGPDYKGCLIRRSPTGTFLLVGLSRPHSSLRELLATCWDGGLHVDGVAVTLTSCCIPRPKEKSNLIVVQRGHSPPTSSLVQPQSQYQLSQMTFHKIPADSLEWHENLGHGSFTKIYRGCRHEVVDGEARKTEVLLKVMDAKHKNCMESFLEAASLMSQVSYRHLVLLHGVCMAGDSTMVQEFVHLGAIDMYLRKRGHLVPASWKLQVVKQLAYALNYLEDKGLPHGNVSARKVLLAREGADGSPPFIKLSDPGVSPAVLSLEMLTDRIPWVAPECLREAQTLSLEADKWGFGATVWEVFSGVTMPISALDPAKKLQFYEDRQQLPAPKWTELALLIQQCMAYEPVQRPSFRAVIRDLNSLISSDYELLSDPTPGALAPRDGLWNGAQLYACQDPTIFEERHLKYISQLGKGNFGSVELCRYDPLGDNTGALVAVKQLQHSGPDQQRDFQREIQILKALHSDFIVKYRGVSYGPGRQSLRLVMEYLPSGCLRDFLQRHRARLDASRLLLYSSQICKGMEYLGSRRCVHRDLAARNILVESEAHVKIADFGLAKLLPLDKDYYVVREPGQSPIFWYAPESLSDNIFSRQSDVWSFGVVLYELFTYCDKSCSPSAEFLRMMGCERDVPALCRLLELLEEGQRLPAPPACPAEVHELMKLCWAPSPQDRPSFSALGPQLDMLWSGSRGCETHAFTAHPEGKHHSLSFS
The assay is described as follows: JAK3 Kinase Inhibitory Activity Assay.

Tyrosine-protein kinase JAK2, sequence (O60674 whole entry): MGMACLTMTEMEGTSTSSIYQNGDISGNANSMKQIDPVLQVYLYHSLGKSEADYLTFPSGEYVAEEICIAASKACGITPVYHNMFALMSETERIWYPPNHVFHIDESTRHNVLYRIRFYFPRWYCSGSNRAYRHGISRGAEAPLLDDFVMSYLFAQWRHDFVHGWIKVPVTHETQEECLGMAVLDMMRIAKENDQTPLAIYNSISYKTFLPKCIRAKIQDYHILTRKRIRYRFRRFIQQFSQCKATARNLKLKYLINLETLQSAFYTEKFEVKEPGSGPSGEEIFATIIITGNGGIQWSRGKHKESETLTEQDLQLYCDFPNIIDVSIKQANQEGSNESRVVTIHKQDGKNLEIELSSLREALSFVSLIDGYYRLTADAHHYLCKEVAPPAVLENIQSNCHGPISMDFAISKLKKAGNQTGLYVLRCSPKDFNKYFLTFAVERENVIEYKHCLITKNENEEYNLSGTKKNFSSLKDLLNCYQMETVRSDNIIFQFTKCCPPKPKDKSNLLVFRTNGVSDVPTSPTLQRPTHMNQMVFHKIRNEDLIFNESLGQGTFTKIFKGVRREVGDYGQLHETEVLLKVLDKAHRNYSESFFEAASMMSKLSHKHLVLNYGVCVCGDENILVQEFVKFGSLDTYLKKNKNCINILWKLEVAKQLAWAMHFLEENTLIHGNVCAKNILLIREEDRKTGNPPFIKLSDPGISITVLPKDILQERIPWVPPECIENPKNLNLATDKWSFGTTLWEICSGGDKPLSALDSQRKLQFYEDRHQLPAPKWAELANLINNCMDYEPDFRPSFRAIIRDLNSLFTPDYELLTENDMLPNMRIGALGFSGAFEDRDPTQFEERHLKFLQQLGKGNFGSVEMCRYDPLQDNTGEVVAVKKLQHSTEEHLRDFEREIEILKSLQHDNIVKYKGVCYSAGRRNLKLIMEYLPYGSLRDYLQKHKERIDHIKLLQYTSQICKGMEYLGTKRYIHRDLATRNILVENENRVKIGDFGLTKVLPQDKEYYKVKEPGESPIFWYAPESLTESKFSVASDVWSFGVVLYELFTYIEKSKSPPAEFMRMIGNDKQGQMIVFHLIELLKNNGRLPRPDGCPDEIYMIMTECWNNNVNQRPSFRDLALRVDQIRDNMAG

`N#CCC1(n2cc(-c3ncnc4[nH]ccc34)cn2)CCC(F)(F)CC1` [US20250136608, Compound 1]: the IC50 in assay [1] worked out at 2.8 nM; in assay [2], 241 nM.

One may read the IC50 as the point on the concentration scale where inhibition reaches its midpoint.
